Assay results as given in US20250100996A1, “HETEROCYCLOALKYL AND HETEROARYL COMPOUNDS AND PHARMACEUTICAL COMPOSITIONS THAT MODULATE IKZF2” (Plexium, Inc., priority 2021, published 2025).

Columns and labels:
IKZF1 (Ikaros) = biological target: T1, IKZF1 (Ikaros) (Homo sapiens, UniProt Q13422); assay: IKZF1 reporter degradation assay (HEK 293T IKZF1-mNeonGreen reporter cell line); type: cell-based; conditions: 24 hours incubation
T1 construct: mScarlet (behind P2A) (C, cleaved yes); expressed in transfected cells
T1 sequence (Q96SW2 whole entry partner): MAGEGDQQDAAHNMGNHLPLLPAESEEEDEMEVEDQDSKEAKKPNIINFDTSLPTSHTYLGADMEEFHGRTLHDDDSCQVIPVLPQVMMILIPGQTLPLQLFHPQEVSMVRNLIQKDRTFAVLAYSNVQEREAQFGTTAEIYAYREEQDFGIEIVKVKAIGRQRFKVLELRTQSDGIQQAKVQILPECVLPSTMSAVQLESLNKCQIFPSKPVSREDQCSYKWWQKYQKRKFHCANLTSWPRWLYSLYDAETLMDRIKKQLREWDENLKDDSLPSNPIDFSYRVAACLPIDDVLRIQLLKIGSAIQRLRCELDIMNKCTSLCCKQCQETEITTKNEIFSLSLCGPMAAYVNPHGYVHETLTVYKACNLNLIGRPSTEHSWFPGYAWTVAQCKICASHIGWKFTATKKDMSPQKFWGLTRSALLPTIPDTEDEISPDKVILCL
T1 sequence (Q16531 whole entry partner): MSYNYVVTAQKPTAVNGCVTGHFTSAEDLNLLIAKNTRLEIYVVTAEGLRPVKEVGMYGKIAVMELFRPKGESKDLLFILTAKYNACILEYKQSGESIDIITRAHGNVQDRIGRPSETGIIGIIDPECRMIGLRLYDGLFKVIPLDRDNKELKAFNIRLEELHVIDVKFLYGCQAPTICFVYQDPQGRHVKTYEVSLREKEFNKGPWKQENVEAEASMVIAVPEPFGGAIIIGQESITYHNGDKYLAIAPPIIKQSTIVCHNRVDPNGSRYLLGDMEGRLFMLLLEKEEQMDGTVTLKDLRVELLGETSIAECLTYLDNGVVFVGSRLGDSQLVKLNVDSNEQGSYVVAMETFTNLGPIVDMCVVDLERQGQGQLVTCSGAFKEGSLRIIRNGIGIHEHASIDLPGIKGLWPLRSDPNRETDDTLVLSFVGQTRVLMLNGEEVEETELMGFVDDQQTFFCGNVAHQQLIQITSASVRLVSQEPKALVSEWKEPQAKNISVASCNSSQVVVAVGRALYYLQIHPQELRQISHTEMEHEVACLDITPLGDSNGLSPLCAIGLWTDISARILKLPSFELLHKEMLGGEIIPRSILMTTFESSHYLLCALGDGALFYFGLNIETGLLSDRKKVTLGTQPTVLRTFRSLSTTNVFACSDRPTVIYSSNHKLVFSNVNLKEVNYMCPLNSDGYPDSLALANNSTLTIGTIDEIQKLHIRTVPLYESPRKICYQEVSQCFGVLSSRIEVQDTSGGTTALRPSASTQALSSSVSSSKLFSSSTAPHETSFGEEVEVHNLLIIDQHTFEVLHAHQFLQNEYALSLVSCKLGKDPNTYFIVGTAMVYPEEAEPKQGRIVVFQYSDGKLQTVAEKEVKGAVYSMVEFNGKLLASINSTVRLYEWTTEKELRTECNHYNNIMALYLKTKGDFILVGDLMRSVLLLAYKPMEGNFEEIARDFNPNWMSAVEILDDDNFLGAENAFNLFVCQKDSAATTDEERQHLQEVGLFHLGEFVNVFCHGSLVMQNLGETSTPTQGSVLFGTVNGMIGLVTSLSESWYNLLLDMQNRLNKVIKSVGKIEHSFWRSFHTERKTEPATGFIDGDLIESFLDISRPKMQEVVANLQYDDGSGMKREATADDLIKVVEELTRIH
T1 sequence (Q13422 whole entry): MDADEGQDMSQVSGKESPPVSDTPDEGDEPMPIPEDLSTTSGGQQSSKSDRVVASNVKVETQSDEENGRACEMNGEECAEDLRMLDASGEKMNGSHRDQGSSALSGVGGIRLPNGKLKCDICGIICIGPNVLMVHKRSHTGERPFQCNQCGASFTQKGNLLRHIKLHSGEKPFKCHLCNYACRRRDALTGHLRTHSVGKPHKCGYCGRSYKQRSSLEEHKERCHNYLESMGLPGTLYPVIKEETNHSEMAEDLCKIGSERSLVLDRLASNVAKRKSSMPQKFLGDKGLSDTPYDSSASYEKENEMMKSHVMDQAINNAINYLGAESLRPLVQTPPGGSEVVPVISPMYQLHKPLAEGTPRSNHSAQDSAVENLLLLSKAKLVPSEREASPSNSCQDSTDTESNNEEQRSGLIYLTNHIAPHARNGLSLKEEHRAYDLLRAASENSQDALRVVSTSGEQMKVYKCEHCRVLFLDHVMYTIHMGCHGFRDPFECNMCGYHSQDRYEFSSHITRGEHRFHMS
Text: Polycistronic plasmids were constructed for the mammalian expression of fluorescent reporter fusions of human transcription factors IKZF1 (Ikaros), IKZF2 (Helios), and IKZF3 (Aiolos). The respective protein sequences had their C-terminal end joined to a GGGGS linker repeated three times followed by mNeonGreen, P2A sequence, and mScarlet. The DNA sequences of the open reading frames are as follows:
IKZF1, IKZF2, and IKZF3 constructs were cloned into the UCOE Hygromycin expression vectors (Millipore Sigma). Reporter constructs were transfected using cationic lipid reagents into adherent HEK 293T cells and stable integrants were selected by treatment with 200 μg/mL hygromycin B. Clonal populations were obtained from the population of stable integrants either by limiting dilution or fluorescence activated cell sorting.
The clonal stable cell lines were maintained under constant 200 μg/mL hygromycin B selection while being passaged for use in the degradation assays. […] The fluorescence intensity of the IKZF1/2/3-mNeonGreen (FITC channel) and mScarlet (PE channel) reporters were routinely analyzed by flow cytometry to confirm consistent expression levels between experiments.
The IKZF1/IKZF2/IKZF3 degradation assays were carried out by harvesting the HEK 293T reporter cell lines and resuspending the cells in media formulated for reduced background fluorescence (FluoroBrite; Thermo Fisher). The respective cell lines were seeded at a density of 4000 cells/well into black-walled 384-well optical grade assay tissue culture plates. The cells were incubated overnight at 37° C. to allow for attachment to the assay plate. Dilutions of the compounds were prepared in DMSO from 10 mM compound stocks. The assay plates were treated with appropriate concentrations of the compounds by dispensing the DMSO dilutions in quadruplicate wells with an upper limit of 0.5% final DMSO.
After 24 hours incubation with the compounds, the assay plates were imaged on an ImageXpress Pico microscopy system (cells maintained at 37° C. during imaging) to obtain the fluorescent readouts. The assay plates were imaged in the FITC and Tetramethylrhodamine (TRITC) channels to obtain the mNeonGreen fluorescence intensity (reporter degradation data) and mScarlet fluorescence intensity (for cell segmentation). 293T-IKZF1 and 293T-IKZF3 reporter cell lines were imaged with exposures of 500 milliseconds (ms) for both FITC and TRITC channels, while the 293T-IKZF2 reporter cell line was imaged with exposures of 1000 ms for FITC and 1250 ms for TRITC. The resulting data was analyzed with Cell Reporter Xpress software using the 2-channel cell scoring analysis with a “percent positive” readout. The TRITC channel was selected for the “nuclei” segmentation with a threshold of 20 while the FITC channel was selected for the “Marker 1” segmentation and a threshold of 100 for the IKZF1 and IKZF3 reporter lines. […] The minimum segmentation width was set to 6 micrometers and the maximum segmentation width was set to 15 micrometers for all cell lines. The DC50 calculations were determined by regression to best fit four-parameter logistic curves using GraphPad Prism.

IKZF2 (Helios) [1] = biological target: T2, IKZF2 (Helios) (Homo sapiens, UniProt Q96SW2+Q9UKS7); assay: IKZF2 reporter degradation assay (HEK 293T IKZF2-mNeonGreen reporter cell line); type: cell-based; conditions: HEK-293T, 24 h, 1 μM compound, HEK 293T IKZF2 reporter cells, 24 hours incubation
T2 construct: Leu-Asp junction (codons ctcgac before the linker); mScarlet (behind P2A) (C, cleaved yes); expressed in transfected cells
T2 sequence (Q9UKS7 whole entry): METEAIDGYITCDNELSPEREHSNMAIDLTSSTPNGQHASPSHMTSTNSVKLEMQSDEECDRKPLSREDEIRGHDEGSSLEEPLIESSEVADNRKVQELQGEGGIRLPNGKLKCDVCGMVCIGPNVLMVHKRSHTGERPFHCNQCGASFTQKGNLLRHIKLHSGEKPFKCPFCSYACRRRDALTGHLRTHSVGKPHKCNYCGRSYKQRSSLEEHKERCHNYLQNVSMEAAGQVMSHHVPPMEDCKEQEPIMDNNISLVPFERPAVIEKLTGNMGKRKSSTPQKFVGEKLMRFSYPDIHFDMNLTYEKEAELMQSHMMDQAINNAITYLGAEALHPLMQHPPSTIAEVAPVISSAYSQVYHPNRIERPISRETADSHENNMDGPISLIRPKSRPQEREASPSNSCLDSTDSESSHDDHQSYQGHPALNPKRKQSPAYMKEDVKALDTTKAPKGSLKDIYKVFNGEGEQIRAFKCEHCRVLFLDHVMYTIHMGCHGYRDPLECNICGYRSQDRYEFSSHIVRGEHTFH
T2 sequence (Q96SW2 whole entry): as the sequence (Q96SW2 whole entry partner) above
T2 sequence (Q16531 whole entry partner): as the sequence (Q16531 whole entry partner) above
Summary of the method: (§1)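 In reporter HEK 293T clones, the FITC exposure was 1000 ms for the IKZF2 line and 500 ms for the IKZF1 and IKZF3 lines. Imaging followed 24 h of compound treatment, and percent-positive scoring was fitted to a four-parameter logistic curve for DC50.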

IKZF2 (Helios) [2] = biological target: T3, IKZF2 (Helios) (Homo sapiens, UniProt Q9UKS7); assay: as above; type: cell-based; conditions: 24 hours incubation
T3 construct: Leu-Asp junction (codons ctcgac before the linker); mScarlet (behind P2A) (C, cleaved yes); expressed in transfected cells
T3 sequence (Q9UKS7 whole entry): as the sequence (Q9UKS7 whole entry) above
T3 sequence (Q96SW2 whole entry, further chain): as the sequence (Q96SW2 whole entry partner) above
T3 sequence (Q16531 whole entry partner): as the sequence (Q16531 whole entry partner) above
Summary of the method: as §1

IKZF3 (Aiolos) = biological target: T4, IKZF3 (Aiolos) (Homo sapiens, UniProt Q9UKT9); assay: IKZF3 reporter degradation assay (HEK 293T IKZF3-mNeonGreen reporter cell line); type: cell-based; conditions: 24 hours incubation
T4 construct: Leu-Asp junction (codons ctcgac before the linker); mScarlet (behind P2A) (C, cleaved yes); expressed in transfected cells
T4 sequence (Q96SW2 whole entry partner): as the sequence (Q96SW2 whole entry partner) above
T4 sequence (Q16531 whole entry partner): as the sequence (Q16531 whole entry partner) above
T4 sequence (Q9UKT9 whole entry): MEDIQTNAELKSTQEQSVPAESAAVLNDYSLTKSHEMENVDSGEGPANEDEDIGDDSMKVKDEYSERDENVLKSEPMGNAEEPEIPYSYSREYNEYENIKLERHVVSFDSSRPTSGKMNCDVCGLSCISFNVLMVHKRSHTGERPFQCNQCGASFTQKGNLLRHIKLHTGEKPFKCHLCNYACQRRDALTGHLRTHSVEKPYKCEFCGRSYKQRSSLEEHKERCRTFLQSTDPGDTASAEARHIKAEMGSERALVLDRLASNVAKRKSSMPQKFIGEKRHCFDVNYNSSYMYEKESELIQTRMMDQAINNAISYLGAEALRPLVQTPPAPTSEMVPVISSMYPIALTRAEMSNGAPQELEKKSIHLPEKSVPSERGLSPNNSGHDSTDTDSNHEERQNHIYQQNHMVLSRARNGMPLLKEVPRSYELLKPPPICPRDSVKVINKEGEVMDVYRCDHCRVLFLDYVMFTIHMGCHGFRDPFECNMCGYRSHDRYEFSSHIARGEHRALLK
Summary of the method: as §1

[3] = biological target: T5, human E3 ligase component cereblon (CRBN) (Homo sapiens, UniProt Q96SW2); assay: Cereblon (CRBN) target engagement, NanoBRET TE Intracellular E3 Ligase Assay in transfected HEK-293T cells; conditions: read-out: CRBN Binding EC50
T5 construct: host or cells: HEK293T
T5 sequence (Q96SW2 whole entry): as the sequence (Q96SW2 whole entry partner) above
T5 sequence (Q16531 whole entry partner): as the sequence (Q16531 whole entry partner) above
Summary of the method: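 Tracer displacement was read as the 610/450 nm BRET signal after 2 h at 37° C with an 11-point dilution series, typically 10 μM to 100 pM. Live HEK-293T cells expressed NanoLuc fused N-terminal to human CRBN together with DDB1. IC50 was fitted with a four-parameter logistic model.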

[4] = HEK 293T IKZF1-mNeonGreen reporter
[5] = HEK 293T IKZF2-mNeonGreen reporter
[6] = HEK 293T IKZF3-mNeonGreen reporter

Row | SMILES | DC50 (IKZF1 (Ikaros); HEK 293T IKZF1 reporter cells) [µM] | inhibition at 1 µM (IKZF2 (Helios) [1]) [%] | DC50 (IKZF2 (Helios) [2]; HEK 293T IKZF2 reporter cells) [µM] | DC50 (IKZF3 (Aiolos); HEK 293T IKZF3 reporter cells) [µM] | EC50 [3] [µM] | DC50 (IKZF1 (Ikaros); [4]) [µM] | DC50 (IKZF2 (Helios) [2]; [5]) [µM] | DC50 (IKZF3 (Aiolos); [6]) [µM]
1 | O=C1CCC(N2Cc3cc(O[C@H]4CCCC[C@@H]4N4CC(n5cccn5)C4)ccc3C2=O)C(=O)N1 (stereo partly drawn) [Compound 81-B, 3-(5-(((1S,2S)-2-(3-(1H-pyrazol-1-yl)azetidin-1-yl)cyclohexyl)oxy)-1-oxoisoindolin-2-yl)piperidine-2,6-dione] | > 30 | 78 | 0.0965 | > 30 | – | – | – | –
2 | O=C1CCC(N2Cc3cc(OC4CCCCC4N4CC(c5ncccn5)C4)ccc3C2=O)C(=O)N1 (stereo not shown) [Compound 46-B, 3-(1-oxo-5-((2-(3-(pyrimidin-2-yl)azetidin-1-yl)cyclohexyl)oxy)isoindolin-2-yl)piperidine-2,6-dione] | > 30 | 39 | 0.232 | > 30 | – | – | – | –
3 | O=C1CCC(N2Cc3cc(OC4CCCCC4N4CC(c5ncc(Cl)cn5)C4)ccc3C2=O)C(=O)N1 (stereo not shown) [Compound 26-B, 3-(5-((2-(3-(5-chloropyrimidin-2-yl)azetidin-1-yl)cyclohexyl)oxy)-1-oxoisoindolin-2-yl)piperidine-2,6-dione] | > 30 | 78.4 | 0.525 | > 30 | – | – | – | –
4 | Cc1cc(C2CN(C3CCCCC3Oc3ccc4c(c3)CN(C3CCC(=O)NC3=O)C4=O)C2)ccn1 (stereo not shown) [Compound 56-B, 3-(5-((2-(3-(2-methylpyridin-4-yl)azetidin-1-yl)cyclohexyl)oxy)-1-oxoisoindolin-2-yl)piperidine-2,6-dione] | > 30 | 84.8 | 0.0111 | > 30 | – | – | – | –
5 | O=C1NC(=O)C2(N3Cc4cc(O[C@@H]5CCCC[C@@H]5N5CC(c6ncc(Cl)cn6)C5)ccc4C3=O)CC1C2 (racemic) [Compound 171-B, Rac-1-(5-(((cis)-2-(3-(5-chloropyrimidin-2-yl)azetidin-1-yl)cyclohexyl)oxy)-1-oxoisoindolin-2-yl)-3-azabicyclo[3.1.1]heptane-2,4-dione] | – | – | – | – | > 10 | ≥ 30 | > 30 | > 30
6 | COc1ccc(C2CN([C@H]3CCCC3Oc3ccc4c(c3)CN(C3CCC(=O)NC3=O)C4=O)C2)cn1 (mixture of isomers) [Compound 202-B, Rac-3-(5-(((trans)-2-(3-(6-methoxypyridin-3-yl)azetidin-1-yl)cyclopentyl)oxy)-1-oxoisoindolin-2-yl)piperidine-2,6-dione] | – | – | – | – | 0.029 | > 30 | > 30 | > 30

Results, then the compound that gave them:

Row | DC50 (IKZF1 (Ikaros); HEK 293T IKZF1 reporter cells) [µM] | inhibition at 1 µM (IKZF2 (Helios) [1]) [%] | DC50 (IKZF2 (Helios) [2]; HEK 293T IKZF2 reporter cells) [µM] | DC50 (IKZF3 (Aiolos); HEK 293T IKZF3 reporter cells) [µM] | EC50 [3] [µM] | DC50 (IKZF1 (Ikaros); [4]) [µM] | DC50 (IKZF2 (Helios) [2]; [5]) [µM] | DC50 (IKZF3 (Aiolos); [6]) [µM] | SMILES
7 | > 30 | 72.5 | 0.0382 | > 30 | – | – | – | – | O=C1CCC(N2Cc3cc(OC4CCCCC4N4CC(c5cnc6ccccc6n5)C4)ccc3C2=O)C(=O)N1 (stereo not shown) [Compound 21-B, 3-(1-oxo-5-((2-(3-(quinoxalin-2-yl)azetidin-1-yl)cyclohexyl)oxy)isoindolin-2-yl)piperidine-2,6-dione]
8 | > 30 | 55.8 | 0.026 | > 30 | – | – | – | – | O=C1CCC(N2Cc3cc(OC4CCCCC4N4CC(c5c[nH]c6ccccc56)C4)ccc3C2=O)C(=O)N1 (stereo not shown) [Compound 61-B, 3-(5-((2-(3-(1H-indol-3-yl)azetidin-1-yl)cyclohexyl)oxy)-1-oxoisoindolin-2-yl)piperidine-2,6-dione]
9 | – | – | – | – | 0.031 | > 30 | > 30 | > 30 | O=C1CCC(N2Cc3cc(O[C@H]4CCCC[C@@H]4N4CC(c5cc(Cl)ccn5)C4)ccc3C2=O)C(=O)N1 (mixture of isomers) [Compound 166-B, Rac-3-(5-(((trans)-2-(3-(4-chloropyridin-2-yl)azetidin-1-yl)cyclohexyl)oxy)-1-oxoisoindolin-2-yl)piperidine-2,6-dione]
10 | – | – | – | – | 0.048 | > 30 | > 30 | > 30 | O=C1CCC(N2Cc3cc(O[C@H]4CCCC[C@@H]4N4CC(c5cncc(Cl)c5)C4)ccc3C2=O)C(=O)N1 (mixture of isomers) [Compound 168-B, Rac-3-(5-(((trans)-2-(3-(5-chloropyridin-3-yl)azetidin-1-yl)cyclohexyl)oxy)-1-oxoisoindolin-2-yl)piperidine-2,6-dione]
